The numbers were not newly measured in US20090041835A1, “METHOD OF INHIBITING LEAKAGE OF DRUG ENCAPSULATED IN LIPOSOMES” (KYOWA HAKKO KOGYO CO., LTD., priority 1999, published 2009), which cites them from elsewhere.

The conditions of the data set: LUVs of 190 nm average particle size, pH gradient using ammonium sulfate; 50% mouse serum at 37° C.

For the compound `O=C(O)c1cn(C2CC2)c2cc(N3CCNCC3)c(F)cc2c1=O` [ciprofloxacin], the “leakage of drug out of the LUVs” value is “rapidly leaked out”.
